{"source": "ChEMBL document CHEMBL1145216", "about": "“N-hydroxy-2-(naphthalene-2-ylsulfanyl)-acetamide, a novel hydroxamic acid-based inhibitor of aminopeptidase N and its anti-angiogenic activity” (Bioorg Med Chem Lett, 2005)", "key": {"[1]": {"molecular_target": "T1, Matrix metalloproteinase-9 (Homo sapiens, UniProt P14780)", "T1 sequence (P14780 whole entry)": "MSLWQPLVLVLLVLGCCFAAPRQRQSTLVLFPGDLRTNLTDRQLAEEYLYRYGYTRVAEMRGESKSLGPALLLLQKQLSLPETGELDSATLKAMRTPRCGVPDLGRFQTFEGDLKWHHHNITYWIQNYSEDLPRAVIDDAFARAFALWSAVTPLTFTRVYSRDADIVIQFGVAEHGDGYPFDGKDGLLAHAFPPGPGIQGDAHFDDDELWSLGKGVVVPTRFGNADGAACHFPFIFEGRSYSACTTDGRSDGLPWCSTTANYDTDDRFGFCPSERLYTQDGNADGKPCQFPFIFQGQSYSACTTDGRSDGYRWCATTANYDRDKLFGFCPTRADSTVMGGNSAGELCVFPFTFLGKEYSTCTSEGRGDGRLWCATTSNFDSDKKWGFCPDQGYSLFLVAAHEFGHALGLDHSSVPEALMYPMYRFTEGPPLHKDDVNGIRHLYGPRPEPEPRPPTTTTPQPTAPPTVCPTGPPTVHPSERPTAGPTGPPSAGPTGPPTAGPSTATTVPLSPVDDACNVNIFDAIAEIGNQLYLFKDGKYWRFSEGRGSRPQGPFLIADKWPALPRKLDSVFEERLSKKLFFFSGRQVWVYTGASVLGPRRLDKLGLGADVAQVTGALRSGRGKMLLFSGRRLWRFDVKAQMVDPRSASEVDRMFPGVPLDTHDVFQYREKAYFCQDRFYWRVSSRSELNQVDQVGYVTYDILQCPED", "test": "Inhibition of human matrix metalloprotease-9 expressed in Sf9 insect cells; NA:Not active; call rule not given here"}, "[2]": {"molecular_target": "T2, Matrix metalloproteinase-14 (Homo sapiens, UniProt P50281)", "test": "Inhibitory concentration against matrix metalloprotease-14 in Escherichia coli was determined; NA:Not active"}, "Aminopeptidase N [3]": {"molecular_target": "T3, Aminopeptidase N (Homo sapiens, UniProt P15144)", "T3 sequence (P15144 whole entry)": "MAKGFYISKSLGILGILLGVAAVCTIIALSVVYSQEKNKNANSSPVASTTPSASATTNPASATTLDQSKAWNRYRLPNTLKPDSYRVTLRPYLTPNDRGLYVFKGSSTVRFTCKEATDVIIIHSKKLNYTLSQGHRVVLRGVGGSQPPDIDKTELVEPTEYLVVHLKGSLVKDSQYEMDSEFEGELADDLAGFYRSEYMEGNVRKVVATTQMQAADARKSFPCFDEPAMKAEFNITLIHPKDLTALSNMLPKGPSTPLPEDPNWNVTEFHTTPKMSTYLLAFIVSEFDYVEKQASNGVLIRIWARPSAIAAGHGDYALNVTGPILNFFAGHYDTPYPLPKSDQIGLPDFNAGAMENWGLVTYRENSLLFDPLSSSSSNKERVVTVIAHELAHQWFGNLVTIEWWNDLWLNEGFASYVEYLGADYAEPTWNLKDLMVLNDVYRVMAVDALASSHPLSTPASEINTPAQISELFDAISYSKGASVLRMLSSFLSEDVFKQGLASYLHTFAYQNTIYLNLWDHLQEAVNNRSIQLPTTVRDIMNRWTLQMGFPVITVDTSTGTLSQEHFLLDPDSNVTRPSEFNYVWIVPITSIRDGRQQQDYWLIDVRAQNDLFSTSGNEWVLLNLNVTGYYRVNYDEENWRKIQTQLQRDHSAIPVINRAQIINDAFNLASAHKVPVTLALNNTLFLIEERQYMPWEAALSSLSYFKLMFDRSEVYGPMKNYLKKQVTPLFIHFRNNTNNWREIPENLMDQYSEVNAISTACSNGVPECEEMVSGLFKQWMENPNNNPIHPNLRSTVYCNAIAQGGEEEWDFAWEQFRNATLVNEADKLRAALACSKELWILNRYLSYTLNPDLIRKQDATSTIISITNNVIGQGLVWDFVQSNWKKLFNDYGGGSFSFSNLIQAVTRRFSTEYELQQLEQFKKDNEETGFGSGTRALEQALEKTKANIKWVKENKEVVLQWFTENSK", "test": "Binding affinity towards aminopeptidase N"}, "Aminopeptidase N [4]": {"molecular_target": "T3, Aminopeptidase N", "test": "Inhibitory concentration against aminopeptidase N"}, "[5]": {"molecular_target": "72 kDa type IV collagenase (Homo sapiens, UniProt P08253)", "sequence (P08253 whole entry)": "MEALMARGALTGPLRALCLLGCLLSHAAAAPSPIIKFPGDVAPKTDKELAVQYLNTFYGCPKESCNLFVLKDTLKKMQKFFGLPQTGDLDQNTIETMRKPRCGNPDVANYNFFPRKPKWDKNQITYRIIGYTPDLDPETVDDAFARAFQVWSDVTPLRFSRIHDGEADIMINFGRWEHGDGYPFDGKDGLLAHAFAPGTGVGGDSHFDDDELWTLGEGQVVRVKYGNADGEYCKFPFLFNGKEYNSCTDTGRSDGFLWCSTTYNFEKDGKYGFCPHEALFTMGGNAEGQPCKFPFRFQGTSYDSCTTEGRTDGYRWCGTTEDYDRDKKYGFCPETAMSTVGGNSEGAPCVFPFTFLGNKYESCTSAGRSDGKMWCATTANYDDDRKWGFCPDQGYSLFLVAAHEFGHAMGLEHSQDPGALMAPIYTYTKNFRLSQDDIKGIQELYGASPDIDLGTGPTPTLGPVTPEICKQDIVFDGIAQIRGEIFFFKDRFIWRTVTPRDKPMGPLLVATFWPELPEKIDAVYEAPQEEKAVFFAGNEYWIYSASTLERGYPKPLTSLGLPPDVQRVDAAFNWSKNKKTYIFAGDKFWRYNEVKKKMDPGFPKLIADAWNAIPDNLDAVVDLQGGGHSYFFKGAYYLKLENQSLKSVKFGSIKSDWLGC", "test": "Inhibition of human matrix metalloprotease-2 expressed in Sf9 insect cells; NA:Not active"}, "[6]": {"molecular_target": "T1, Matrix metalloproteinase-9", "test": "Inhibition of human matrix metalloprotease-9 expressed in Sf9 insect cells"}, "[7]": {"molecular_target": "T2, Matrix metalloproteinase-14", "test": "Inhibition of human matrix metalloprotease-14 expressed in Escherichia coli"}}, "data": [{"compound": "O=C(CSc1ccc2ccccc2c1)NO", "values": [{"measurement": "IC50", "setting": "[1]", "result": "Not Active"}, {"measurement": "IC50", "setting": "[2]", "result": "Not Active"}, {"measurement": "Ki", "setting": "Aminopeptidase N [3]", "result": 3.5, "unit": "µM"}, {"measurement": "IC50", "setting": "Aminopeptidase N [4]", "result": 3.4, "unit": "µM"}, {"measurement": "IC50", "setting": "[5]", "result": "Not Active"}]}, {"compound": "CNC(=O)[C@H](Cc1ccccc1)NC(=O)[C@H](CC(C)C)[C@H](CSc1cccs1)C(=O)NO", "note": "[BATIMASTAT]", "values": [{"measurement": "IC50", "setting": "[6]", "result": 0.025, "unit": "µM"}, {"measurement": "IC50", "setting": "[7]", "result": 0.047, "unit": "µM"}]}]}
